Patent US11427548B2 (Arvinas Operations, Inc., priority 2015, dated 2022)
Like-named read-outs stand apart in the source and are kept apart here.

Target: T1, Androgen Receptor (Homo sapiens, UniProt P10275)
T1 construct: endogenous in cells; host or cells: VCaP cells
T1 sequence (P10275 1-920): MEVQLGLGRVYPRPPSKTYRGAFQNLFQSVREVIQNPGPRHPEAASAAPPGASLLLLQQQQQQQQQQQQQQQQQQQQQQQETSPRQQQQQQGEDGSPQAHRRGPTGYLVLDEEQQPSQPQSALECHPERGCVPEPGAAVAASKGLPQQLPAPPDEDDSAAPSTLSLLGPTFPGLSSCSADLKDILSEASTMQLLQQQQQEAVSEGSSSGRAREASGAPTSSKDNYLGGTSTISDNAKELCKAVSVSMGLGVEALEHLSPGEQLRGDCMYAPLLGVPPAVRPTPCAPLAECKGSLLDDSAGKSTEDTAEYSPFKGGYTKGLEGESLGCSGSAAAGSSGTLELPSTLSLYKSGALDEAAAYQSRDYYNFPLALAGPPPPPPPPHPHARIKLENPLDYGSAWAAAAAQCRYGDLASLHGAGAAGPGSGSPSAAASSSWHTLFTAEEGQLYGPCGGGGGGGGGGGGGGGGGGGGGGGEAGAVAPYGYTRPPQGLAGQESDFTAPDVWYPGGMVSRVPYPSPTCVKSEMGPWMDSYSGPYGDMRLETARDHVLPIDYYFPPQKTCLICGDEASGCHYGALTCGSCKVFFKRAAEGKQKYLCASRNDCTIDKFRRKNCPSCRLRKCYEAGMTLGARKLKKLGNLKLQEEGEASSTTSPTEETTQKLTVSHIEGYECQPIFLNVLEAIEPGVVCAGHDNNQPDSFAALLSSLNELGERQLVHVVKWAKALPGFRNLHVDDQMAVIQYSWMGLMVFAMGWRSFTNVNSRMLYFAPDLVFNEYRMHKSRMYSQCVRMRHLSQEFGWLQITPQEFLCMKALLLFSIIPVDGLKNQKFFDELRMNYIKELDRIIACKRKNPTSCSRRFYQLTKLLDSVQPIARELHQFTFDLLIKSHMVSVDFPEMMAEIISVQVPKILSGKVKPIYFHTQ
Test: Androgen Receptor ELISA assay (PathScan AR ELISA) in VCaP cells: AR degradation, Dmax and DC50
Assay type: cell-based
Summary of the method: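 VCaP cells in phenol red-free RPMI with 5% charcoal-stripped FBS were grown at least 3 days, then given compound as 7 half-log doses in 0.1% DMSO with 0.1 nM R1881 for 24 h. Lysates went into a sandwich AR ELISA with TMB read at 450 nm.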

[1] = VCaP cells; Table 36; read-out: VCaP DC50
[2] = read-out: VCaP DC50; VCaP cells; Table 36
[3] = VCaP, VCaP cells; Table 36; read-out: VCaP Dmax (%)
[4] = read-out: VCaP DC50; VCaP cells; Table 34

SMILES: Cc1ncsc1-c1ccc([C@H](C)NC(=O)[C@@H]2C[C@@H](O)CN2C(=O)[C@@H](NC(=O)CN2CCN(CCC3(c4ccc(C(=O)N[C@H]5C(C)(C)[C@H](Oc6ccc(C#N)c(Cl)c6)C5(C)C)cc4)COC3)CC2)C(C)(C)C)cc1 [Example 744, (2S,4R)-1-((S)-2-(2-(4-(2-(3-(4-(((1r,3r)-3-(3-chloro-4-cyanophenoxy)-2,2,4,4-tetramethylcyclobutyl)carbamoyl)phenyl)oxetan-3-yl)ethyl)piperazin-1-yl)acetamido)-3,3-dimethylbutanoyl)-4-hydroxy-N-((S)-1-(4-(4-methylthiazol-5-yl)phenyl)ethyl)pyrrolidine-2-carboxamide]
- DC50 [1]: > 501 nM
- Dmax (VCaP, read-out: VCaP Dmax (%)): < 25%

SMILES: Cc1ncsc1-c1ccc([C@H](C)NC(=O)[C@@H]2C[C@@H](O)CN2C(=O)[C@@H](NC(=O)CN2CCO[C@H](CN3CCO[C@H](COc4ccc(N5C(=S)N(c6ccc(C#N)c(C(F)(F)F)c6)C(=O)C5(C)C)cc4)C3)C2)C(C)(C)C)cc1 [Example 675, (2S,4R)-1-((S)-2-(2-((R)-2-(((S)-2-((4-(3-(4-cyano-3-(trifluoromethyl)phenyl)-5,5-dimethyl-4-oxo-2-thioxoimidazolidin-1-yl)phenoxy)methyl)mor-pholino)methyl)mor-pholino)acetamido)-3,3-dimethylbutanoyl)-4-hydroxy-N-((S)-1-(4-(4-methylthiazol-5-yl)phenyl)ethyl)pyrrolidine-2-carboxamide]
- DC50 [2]: > 501 nM

SMILES: Cc1ncsc1-c1ccc([C@H](C)NC(=O)[C@@H]2C[C@@H](O)CN2C(=O)[C@@H](NC(=O)CN2CCN(CCCOCc3cc(C(=O)N[C@@H](C)Cn4ccc(-c5ccc(C#N)c(C(F)(F)F)c5)n4)n[nH]3)CC2)C(C)(C)C)cc1 [Example 766]
- DC50 [1]: > 501 nM
- Dmax [3]: 26 to 50%

SMILES: Cc1ncsc1-c1ccc(CNC(=O)[C@@H]2C[C@@H](O)CN2C(=O)[C@@H](NC(=O)COCCCCCNc2ccc(C(=O)N[C@H]3C(C)(C)[C@H](Oc4ccc(C#N)c(Cl)c4)C3(C)C)cc2)C(C)C)cc1 [Example 537]
- DC50 (VCaP cells; Table 35; read-out: VCaP DC50): < 50 nM
- Dmax (VCaP, VCaP cells; Table 35; read-out: VCaP Dmax (%)): 26 to 50%

SMILES: Cc1cc(N2C(=O)C(C)(C)N(c3ccc(-c4ccc(OCCCCOCC(=O)N[C@H](C(=O)N5C[C@H](O)C[C@H]5C(=O)NCc5ccc(-c6cnco6)cc5)C(C)(C)C)cc4)cc3)C2=S)ccc1C#N [Example 125, (2S,4R)-1-[(2S)-2-{2-[4-(4-{4-[3-(4-cyano-3-methylphenyl)-5,5-dimethyl-4-oxo-2-sulfanylideneimidazolidin-1-yl]phenyl}phenoxy)butoxy]acetamido}-3,3-dimethylbutanoyl]-4-hydroxy-N-{[4-(1,3-oxazol-5-yl)phenyl]methyl}pyrrolidine-2-carboxamide]
- Dmax (VCaP, highest percentage of Androgen Receptor degradation observed, VCaP cells (Table 32); read-out: VCaP Dmax (%)): 51 to 70%
- DC50 (concentration that caused 50% Androgen Receptor degradation, VCaP cells (Table 32); read-out: VCaP DC50): < 50 nM

SMILES: Cc1ncsc1-c1ccc([C@H](C)NC(=O)[C@@H]2C[C@@H](O)CN2C(=O)[C@@H](NC(=O)CCCC/C(CCCc2ccc(C(=O)N[C@H]3C(C)(C)[C@H](Oc4ccc(C#N)c(Cl)c4)C3(C)C)nc2)=N\O)C(C)(C)C)cc1 [Example 693, N-((1r,3r)-3-(3-chloro-4-cyanophenoxy)-2,2,4,4-tetramethylcyclobutyl)-5-((E)-9-(((S)-1-((2S,4R)-4-hydroxy-2-(((S)-1-(4-(4-methylthiazol-5-yl)phenyl)ethyl)carbam-oyl)pyrrolidin-1-yl)-3,3-dimethyl-1-oxobutan-2-yl)amino)-4-(hydroxyimino)-9-oxononyl)picolinamide]
- DC50 [1]: < 50 nM
- Dmax [3]: 26 to 50%

SMILES: Cc1ncsc1-c1ccc(CNC(=O)[C@@H]2C[C@@H](O)CN2C(=O)[C@H](C(C)C)N2CC(OCCCOCCCOc3ccc(N4C(=S)N(c5ccc(C#N)c(C(F)(F)F)c5)C(=O)C4(C)C)cc3)=CC2=O)cc1 [Example 329]
- Dmax (VCaP, read-out: VCaP Dmax (%)): 26 to 50%
- DC50 [4]: < 50 nM

SMILES: Cc1ncsc1-c1ccc([C@H](C)NC(=O)[C@@H]2C[C@@H](O)CN2C(=O)[C@@H](NC(=O)CN2CCO[C@H](COCCCCCOc3ccc(N4C(=S)N(c5ccc(C#N)c(C(F)(F)F)c5)C(=O)C4(C)C)cc3)C2)C(C)(C)C)cc1 [Example 614, (2S,4R)-1-((S)-2-(2-((S)-2-(((5-(4-(3-(4-cyano-3-(trifluoromethyl)phenyl)-5,5-dimethyl-4-oxo-2-thioxoimidazolidin-1-yl)phenoxy)pentyl)oxy)methyl)morpholino)ace-tamido)-3,3-dimethylbutanoyl)-4-hydroxy-N-((S)-1-(4-(4-methylthiazol-5-yl)phenyl)ethyl)pyrrolidine-2-carboxamide]
- Dmax (VCaP, read-out: VCaP Dmax (%)): 26 to 50%
- DC50 [2]: > 501 nM

SMILES: Cc1ncsc1-c1ccc([C@H](C)NC(=O)[C@@H]2C[C@@H](O)CN2C(=O)[C@@H](NC(=O)COCCCCOc2ccc(-c3ccc(N4C(=S)N(c5ccc(C#N)c(C(F)(F)F)c5)C(=O)C4(C)C)c(F)c3)cc2)C(C)(C)C)cc1 [Example 137, (2S,4R)-1-[(2S)-2-(2-{4-[4-(4-{3-[4-cyano-3-(trifluoromethyl)phenyl]-5,5-dimethyl-4-oxo-2-sulfanylideneimidazolidin-1-yl}-3-fluorophenyl)phenoxy]butoxy}acetamido)-3,3-dimethylbutanoyl]-4-hydroxy-N-[(1S)-1-[4-(4-methyl-1,3-thiazol-5-yl)phenyl]ethyl]pyrrolidine-2-carboxamide]
- Dmax (VCaP, read-out: VCaP Dmax (%)): > 71%
- DC50 (read-out: VCaP DC50; concentration that caused 50% Androgen Receptor degradation, VCaP cells (Table 32)): < 50 nM

SMILES: C[C@H](NC(=O)[C@@H]1C[C@@H](O)CN1C(=O)[C@@H](NC(=O)CN1CCN(CCCc2ccc(C(=O)N[C@H]3C(C)(C)[C@H](Oc4ccc(C#N)c(Cl)c4)C3(C)C)cc2)CC1)C(C)(C)C)c1ccc(Cl)cc1 [Example 739, (2S,4R)-1-((S)-2-(2-(4-(3-(4-(((1r,3r)-3-(3-chloro-4-cyanophenoxy)-2,2,4,4-tetramethylcyclobutyl)carbamoyl)phenyl)propyl)piperazin-1-yl)acetamido)-3,3-dimethylbutanoyl)-N-((S)-1-(4-chlorophenyl)ethyl)-4-hydroxypyrrolidine-2-carboxamide]
- DC50 [1]: > 501 nM
- Dmax [3]: < 25%

SMILES: CC(C)(C)[C@H](NC(=O)COCCCOCCCCCOc1ccc(N2C(=S)N(c3ccc(C#N)c(Cl)c3)C(=O)C2(C)C)cc1)C(=O)N1C[C@H](O)C[C@H]1C(=O)NCc1ccc(-c2cnco2)cc1 [Example 345]
- Dmax (VCaP, read-out: VCaP Dmax (%)): 51 to 70%
- DC50 [4]: < 50 nM

SMILES: Cc1ncsc1-c1ccc([C@H](C)NC(=O)[C@@H]2C[C@@H](O)CN2C(=O)[C@@H](NC(=O)CN2C[C@H](C)N(CCCc3ccc(C(=O)N[C@H]4C(C)(C)[C@H](Oc5ccc(C#N)c(Cl)c5)C4(C)C)cc3)C[C@H]2C)C(C)(C)C)cc1 [Example 816, (2S,4R)-1-((S)-2-(2-((2R,5S)-4-(3-(4-(((1r, 3S)-3-(3-chloro-4-cyanophenoxy)-2,2,4,4-tetramethylcyclobutyl)carbamoyl)phenyl)propyl)-2,5-dimethylpiperazin-1-yl)acetamido)-3,3-dimethylbutanoyl)-4-hydroxy-N-((S)-1-(4-(4-methylthiazol-5-yl)phenyl)ethyl) pyrrolidine-2-carboxamide]
- DC50 [1]: < 50 nM
- Dmax (VCaP, read-out: VCaP Dmax (%)): > 71%

SMILES: Cc1ncsc1-c1ccc([C@H](C)NC(=O)[C@@H]2C[C@@H](O)CN2C(=O)[C@@H](C(C)C)n2cc(-c3ccnc(OC4CN(c5ncc(C(=O)NC6C(C)(C)C(Oc7ccc(C#N)c(Cl)c7)C6(C)C)cn5)C4)c3)cn2)cc1 (stereo partly drawn) [Example 603, N-(3-(3-chloro-4-cyanophenoxy)-2,2,4,4-tetramethylcyclobutyl)-2-(3-((4-(1-((R)-1-((2S,4R)-4-hydroxy-2-(((S)-1-(4-(4-methylthiazol-5-yl)phenyl)ethyl)carbam-oyl)pyrrolidin-1-yl)-3-methyl-1-oxobutan-2-yl)-1H-pyrazol-4-yl)pyridin-2-yl)oxy)azetidin-1-yl)pyrimidine-5-carboxamide]
- DC50 [1]: > 501 nM
- Dmax (VCaP, read-out: VCaP Dmax (%), VCaP cells; Table 36): < 25%

SMILES: Cc1ncsc1-c1ccc(CNC(=O)C2C[C@@H](O)CN2C(=O)[C@@H](NC(=O)CN(C)c2ccc(OCCOc3ccc(N4C(=S)N(c5ccc(C#N)c(C(F)(F)F)c5)C(=O)C4(C)C)cc3)cc2)C(C)(C)C)cc1 (stereo partly drawn) [Example 379]
- Dmax (VCaP, read-out: VCaP Dmax (%)): 51 to 70%
- DC50 [4]: < 50 nM
